This passage reports MIC and ED50 results from ChEMBL document CHEMBL1147001, “Synthesis and antibacterial activity of novel oxazolidinones bearing N-hydroxyacetamidine substituent” (2006).

Converted amounts (≈) assume the structure as drawn.

One may read the ED50 as the dose at which the effect has come halfway, by size or by number of responders. Low values mean greater potency, high ones weaker potency.

What all share (type): functional
For test [1], the system named is Staphylococcus aureus. Put plainly: Antibacterial activity against methicillin-resistant Staphylococcus aureus DRCC 446.
Test [2] relates to Staphylococcus aureus. In words: Antibacterial activity against methicillin-susceptible Staphylococcus aureus DRCC 035.
Test [3] concerns Enterococcus faecalis. In words: Antibacterial activity against vancomycin-resistant Enterococcus faecalis DRCC 153.
For test [4], the system named is Enterococcus faecalis. In words: Antibacterial activity against vancomycin-susceptible Enterococcus faecalis DRCC 034.
In test [5] the test system is Staphylococcus aureus. In words: Antibacterial activity against methicillin-resistant Staphylococcus aureus DRCC 019.
For test [6], the system named is Enterococcus faecalis. In words: Antibacterial activity against vancomycin-resistant Enterococcus faecalis DRCC 154.
The subject of another test is Haemophilus influenzae. In words: Antibacterial activity against beta lactamase negative Haemophilus influenzae DRCC 433.
For test [7], the system named is Staphylococcus aureus. In words: Efficacy against po dosed mouse infected with Staphylococcus aureus ATCC 29213.
The test system of the next test is Moraxella catarrhalis. Put plainly: Antibacterial activity against beta lactamase negative Moraxella catarrhalis DRCC 300.

As for `C/C(S)=N/C[C@H]1CN(c2ccc(N3CCN(CC(=N)NO)CC3)c(F)c2)C(=O)O1`, the MIC against Staphylococcus aureus [1] was found to be 1 µg/mL (≈ 2.36 µM); with Staphylococcus aureus [2], 2 µg/mL (≈ 4.71 µM); with Enterococcus faecalis [3] it was 1 µg/mL (≈ 2.36 µM); in the test with Enterococcus faecalis [4], 1 µg/mL (≈ 2.36 µM); with Staphylococcus aureus [5], 1 µg/mL (≈ 2.36 µM); against Enterococcus faecalis [6] it was 1 µg/mL (≈ 2.36 µM). The same molecule yielded an MIC against Haemophilus influenzae of 4 µg/mL (≈ 9.42 µM).
As for `N/C(CN1CCN(c2ccc(N3C[C@H](CNC(=O)C(F)F)OC3=O)cc2F)CC1)=N\O`, the MIC is 4 µg/mL (≈ 9 µM) against Staphylococcus aureus [1]; 4 µg/mL (≈ 9 µM) against Staphylococcus aureus [2]; 2 µg/mL (≈ 4.5 µM) against Enterococcus faecalis [3]; 4 µg/mL (≈ 9 µM) with Enterococcus faecalis [4]; 4 µg/mL (≈ 9 µM) in the test with Staphylococcus aureus [5]; 4 µg/mL (≈ 9 µM) against Enterococcus faecalis [6]. For the same molecule, the MIC in the test with Haemophilus influenzae stood at 4 µg/mL (≈ 9 µM); in the test with Moraxella catarrhalis, 8 µg/mL (≈ 18 µM). Besides, in the test on Staphylococcus aureus [7], the ED50 amounted to 12.1 mg/kg/day.
In the case of `COC(=O)NC[C@H]1CN(c2cc(F)c(N3CCN(CC(=N)NO)CC3)c(F)c2)C(=O)O1`, the MIC amounted to 1 µg/mL (≈ 2.26 µM) against Staphylococcus aureus [1]; 2 µg/mL (≈ 4.52 µM) in the test on Staphylococcus aureus [2]; 1 µg/mL (≈ 2.26 µM) in the test on Enterococcus faecalis [3]; 1 µg/mL (≈ 2.26 µM) against Enterococcus faecalis [4]; 1 µg/mL (≈ 2.26 µM) against Staphylococcus aureus [5]; 2 µg/mL (≈ 4.52 µM) against Enterococcus faecalis [6]. In addition, the MIC in the test with Haemophilus influenzae is 8 µg/mL (≈ 18.1 µM); with Moraxella catarrhalis, 2 µg/mL (≈ 4.52 µM). The same molecule gave an ED50 with Staphylococcus aureus [7] of 32.2 mg/kg/day.
For `C/C(S)=N/C[C@H]1CN(c2cc(F)c(N3CCN(CC(=N)NO)CC3)c(F)c2)C(=O)O1`, the MIC in the test with Staphylococcus aureus [1] was found to be 0.25 µg/mL (≈ 0.565 µM); in the test on Staphylococcus aureus [2], 1 µg/mL (≈ 2.26 µM); with Enterococcus faecalis [3] it was 0.5 µg/mL (≈ 1.13 µM); against Enterococcus faecalis [4], 0.5 µg/mL (≈ 1.13 µM); in the test with Staphylococcus aureus [5] it was 0.25 µg/mL (≈ 0.565 µM); in the test with Enterococcus faecalis [6] it was 0.25 µg/mL (≈ 0.565 µM). The MIC in the test on Haemophilus influenzae is 4 µg/mL (≈ 9.04 µM); with Moraxella catarrhalis, 0.5 µg/mL (≈ 1.13 µM). Besides, in the test with Staphylococcus aureus [7], the ED50 came out at 22.1 mg/kg/day.
Turning to `CO/C(S)=N/C[C@H]1CN(c2ccc(N3CCN(CC(=N)NO)CC3)c(F)c2)C(=O)O1`, the MIC in the test on Staphylococcus aureus [1] is 0.5 µg/mL (≈ 1.14 µM); in the test with Staphylococcus aureus [2], 1 µg/mL (≈ 2.27 µM); in the test on Enterococcus faecalis [3], 0.5 µg/mL (≈ 1.14 µM); against Enterococcus faecalis [4] it was 0.5 µg/mL (≈ 1.14 µM); with Staphylococcus aureus [5], 0.5 µg/mL (≈ 1.14 µM); against Enterococcus faecalis [6], 0.5 µg/mL (≈ 1.14 µM). The MIC against Haemophilus influenzae and with Moraxella catarrhalis was 8 µg/mL (≈ 18.2 µM) throughout. The 50% effective dose (ED50) in the test on Staphylococcus aureus [7] was 21.2 mg/kg/day.
Turning to `N/C(CN1CCN(c2ccc(N3C[C@H](COc4ccon4)OC3=O)cc2F)CC1)=N\O`, the MIC in the test with Staphylococcus aureus [1] is 4 µg/mL (≈ 9.21 µM); against Staphylococcus aureus [2] it was 16 µg/mL (≈ 36.8 µM); against Enterococcus faecalis [3] it was 8 µg/mL (≈ 18.4 µM); with Enterococcus faecalis [4], 16 µg/mL (≈ 36.8 µM); against Staphylococcus aureus [5], 4 µg/mL (≈ 9.21 µM); in the test on Enterococcus faecalis [6], 16 µg/mL (≈ 36.8 µM). In addition, the MIC was found to be 256 µg/mL (≈ 589 µM) in the test on Haemophilus influenzae and 8 µg/mL (≈ 18.4 µM) with Moraxella catarrhalis.
For `N/C(CN1CCN(c2c(F)cc(N3C[C@H](CNC(=O)C(F)F)OC3=O)cc2F)CC1)=N\O`, the MIC is 1 µg/mL (≈ 2.16 µM) against Staphylococcus aureus [1]; 2 µg/mL (≈ 4.33 µM) against Staphylococcus aureus [2]; 0.5 µg/mL (≈ 1.08 µM) against Enterococcus faecalis [3]; 1 µg/mL (≈ 2.16 µM) against Enterococcus faecalis [4]; 1 µg/mL (≈ 2.16 µM) against Staphylococcus aureus [5]; 1 µg/mL (≈ 2.16 µM) in the test with Enterococcus faecalis [6]. Besides, the MIC in the test on Haemophilus influenzae came to 4 µg/mL (≈ 8.65 µM); with Moraxella catarrhalis, 2 µg/mL (≈ 4.33 µM). This molecule gave an ED50 with Staphylococcus aureus [7] of 18.3 mg/kg/day.
On to `CC(=O)NC[C@H]1CN(c2ccc(N3CCN(CC(=N)NO)CC3)c(F)c2)C(=O)O1`, for which the MIC against Staphylococcus aureus [1] is 4 µg/mL (≈ 9.79 µM); in the test with Staphylococcus aureus [2], 16 µg/mL (≈ 39.2 µM); against Enterococcus faecalis [3], 2 µg/mL (≈ 4.9 µM); in the test on Enterococcus faecalis [4], 8 µg/mL (≈ 19.6 µM); in the test with Staphylococcus aureus [5], 4 µg/mL (≈ 9.79 µM); in the test on Enterococcus faecalis [6] it was 8 µg/mL (≈ 19.6 µM). For the same molecule, the MIC in the test on Haemophilus influenzae and with Moraxella catarrhalis was 8 µg/mL (≈ 19.6 µM) each time.
With `CO/C(S)=N/C[C@H]1CN(c2cc(F)c(N3CCN(CC(=N)NO)CC3)c(F)c2)C(=O)O1`, the MIC against Staphylococcus aureus [1] was 0.25 µg/mL (≈ 0.545 µM); with Staphylococcus aureus [2] it was 0.5 µg/mL (≈ 1.09 µM); in the test with Enterococcus faecalis [3] it was 0.25 µg/mL (≈ 0.545 µM); in the test with Enterococcus faecalis [4] it was 0.25 µg/mL (≈ 0.545 µM); in the test with Staphylococcus aureus [5], 0.25 µg/mL (≈ 0.545 µM); in the test with Enterococcus faecalis [6] it was 0.25 µg/mL (≈ 0.545 µM). Also, the MIC in the test with Haemophilus influenzae is 4 µg/mL (≈ 8.72 µM); against Moraxella catarrhalis, 0.5 µg/mL (≈ 1.09 µM). The same molecule registered an ED50 with Staphylococcus aureus [7] of 32.2 mg/kg/day.
With `N/C(CN1CCN(c2c(F)cc(N3C[C@H](COc4ccon4)OC3=O)cc2F)CC1)=N\O`, the MIC against Staphylococcus aureus [1] is 2 µg/mL (≈ 4.42 µM); in the test on Staphylococcus aureus [2], 4 µg/mL (≈ 8.84 µM); in the test with Enterococcus faecalis [3] it was 2 µg/mL (≈ 4.42 µM); in the test with Enterococcus faecalis [4] it was 4 µg/mL (≈ 8.84 µM); against Staphylococcus aureus [5], 2 µg/mL (≈ 4.42 µM); against Enterococcus faecalis [6], 4 µg/mL (≈ 8.84 µM). Also, the results for the MIC in the test with Haemophilus influenzae and with Moraxella catarrhalis were above 32 µg/mL and 16 µg/mL (≈ 35.4 µM), respectively.
For `COC(=O)NC[C@H]1CN(c2ccc(N3CCN(CC(=N)NO)CC3)c(F)c2)C(=O)O1`, the MIC in the test with Staphylococcus aureus [1] is 16 µg/mL (≈ 37.7 µM); against Staphylococcus aureus [2], 8 µg/mL (≈ 18.8 µM); with Enterococcus faecalis [3], 4 µg/mL (≈ 9.42 µM); in the test with Enterococcus faecalis [4], 4 µg/mL (≈ 9.42 µM); in the test with Staphylococcus aureus [5], 16 µg/mL (≈ 37.7 µM); in the test on Enterococcus faecalis [6], 16 µg/mL (≈ 37.7 µM). For the same molecule, the MIC was 32 µg/mL (≈ 75.4 µM) with Haemophilus influenzae and above 16 µg/mL in the test on Moraxella catarrhalis.
As to `CC(=O)NC[C@H]1CN(c2cc(F)c(N3CCN(CC(=N)NO)CC3)c(F)c2)C(=O)O1`, the MIC against Staphylococcus aureus [1] stood at 1 µg/mL (≈ 2.35 µM); in the test with Staphylococcus aureus [2] it was 2 µg/mL (≈ 4.69 µM); in the test with Enterococcus faecalis [3], 1 µg/mL (≈ 2.35 µM); against Enterococcus faecalis [4], 1 µg/mL (≈ 2.35 µM); in the test with Staphylococcus aureus [5], 1 µg/mL (≈ 2.35 µM); in the test on Enterococcus faecalis [6], 1 µg/mL (≈ 2.35 µM). The MIC in the test on Haemophilus influenzae and in the test with Moraxella catarrhalis was 4 µg/mL (≈ 9.38 µM) each time.
Regarding `CC(=O)NC[C@H]1CN(c2ccc(N3CCOCC3)c(F)c2)C(=O)O1` [LINEZOLID], the MIC against Staphylococcus aureus [5] is 1 µg/mL (≈ 2.96 µM); with Haemophilus influenzae it was 8 µg/mL (≈ 23.7 µM); with Moraxella catarrhalis, 8 µg/mL (≈ 23.7 µM). For the same molecule, the ED50 with Staphylococcus aureus [7] stood at 5.3 mg/kg/day.
